Converted amounts (≈) assume the structure as drawn. Read-outs that look alike come from different tables or passages of the source.
Legend:
S. aureus ATCC 29213 = experiment: MIC determination; assay type: cell-based, Staphylococcus aureus; conditions: for antibacterial activity in words (SAR, ring A derivatives): S. aureus ATCC 29213, compounds of Schemes 3-4; for MIC: Staphylococcus aureus
E. faecium NCTC 7171 = experiment: MIC determination; assay type: cell-based, Enterococcus faecium; conditions: for MIC: Enterococcus faecium
[1] = ATCC29213, Table 3.1 and SAR text, compounds of Schemes 2-4, read-out: S. aureus ATCC 29213 MIC
[2] = NCTC7171, Table 3.1, compounds of Schemes 2-4, read-out: E. faecium NCTC 7171 MIC
[3] = Table 3.1, compounds of Schemes 2-4

Row | SMILES | MIC (S. aureus ATCC 29213; [1]) [µg/mL] | MIC (E. faecium NCTC 7171; [2]) [µg/mL] | antibacterial activity in words (SAR, ring A derivatives) (S. aureus ATCC 29213) | further results
1 | Fc1ccc(Oc2ccc(-c3noc(-c4cc[nH]n4)n3)cc2)cc1 [Compound 102c] | > 128 | 32 (≈ 99.3 µM) | – | –
2 | C[Si](C)(C)C#Cc1c[nH]nc1-c1nc(-c2ccc(Oc3ccc(C(F)(F)F)cc3)cc2)no1 [Compound 103b, 3-(4-(4-Trifluoromethyl)phenoxy)phenyl)-5-(4-((trimethylsilyl)ethynyl-1H-pyrazol-3-yl)-1,2,4-oxadiazole] | – | – | – | S. aureus ATCC 29213 MIC (S. aureus ATCC 29213; [3]): >128 µg/mL; E. faecium NCTC 7171 MIC (E. faecium NCTC 7171; [3]): >128 µg/mL
3 | CCCCNc1c[nH]nc1-c1nc(-c2ccc(Oc3ccc(C(F)(F)F)cc3)cc2)no1 [Compound 104b] | > 128 | > 128 | did not extend | –
4 | CCC(C)Nc1c[nH]nc1-c1nc(-c2ccc(Oc3ccc(C(F)(F)F)cc3)cc2)no1 (stereo not drawn) [Compound 105b] | > 128 | 128 (≈ 289 µM) | did not extend | –
5 | FC(F)(F)c1ccc(Oc2ccc(-c3noc(-c4n[nH]cc4NC4CCCCC4)n3)cc2)cc1 [Compound 106b] | > 128 | 128 (≈ 273 µM) | did not extend | –
6 | FC(F)(F)c1ccc(Oc2ccc(-c3noc(-c4n[nH]cc4NC4CCCC4)n3)cc2)cc1 [Compound 107b] | > 128 | > 128 | did not extend | –
7 | CC(C)(C)OC(=O)N1CCC(Nc2c[nH]nc2-c2nc(-c3ccc(Oc4ccc(C(F)(F)F)cc4)cc3)no2)CC1 [Compound 110b] | > 128 | > 128 | – | –
8 | CCOP(=O)(OCC)c1c[nH]nc1-c1nc(-c2ccc(Oc3ccc(C(F)(F)F)cc3)cc2)no1 [Compound 111b] | – | – | – | MIC (S. aureus ATCC 29213; ATCC29213, read-out: S. aureus ATCC 29213 MIC): > 128 µg/mL; MIC (E. faecium NCTC 7171; NCTC7171, read-out: E. faecium NCTC 7171 MIC): > 128 µg/mL
9 | Oc1nc(-c2ccc(Oc3ccccc3)cc2)no1 [Compound 112a] | > 128 | > 128 | abolishes activity | –
10 | c1ccc(Oc2ccc(-c3noc(-c4ccncc4)n3)cc2)cc1 [Compound 114a] | > 128 | 64 (≈ 203 µM) | No activity | –
11 | [O-][n+]1ccc(-c2nc(-c3ccc(Oc4ccccc4)cc3)no2)cc1 [Compound 115a] | > 128 | 64 (≈ 193 µM) | No activity | –
12 | FC(F)(F)c1ccc(Oc2ccc(-c3noc(-c4nc[nH]n4)n3)cc2)cc1 [Compound 116b] | > 128 | > 128 | No activity | –
13 | CC(C)c1cc(-c2nc(-c3ccc(Oc4ccc(F)cc4)cc3)no2)[nH]n1 [Compound 119c] | > 128 | 64 (≈ 176 µM) | No activity | –
14 | Oc1ccc(-c2nc(-c3ccc(Oc4ccc(C(F)(F)F)cc4)cc3)no2)cn1 [Compound 120b] | > 128 | 32 (≈ 80.1 µM) | – | –
15 | Oc1ccc(-c2nc(-c3ccc(Oc4ccc(F)cc4)cc3)no2)cn1 [Compound 120c] | > 128 | 64 (≈ 183 µM) | – | –
16 | Nc1cc(-c2nc(-c3ccc(Oc4ccc(C(F)(F)F)cc4)cc3)no2)cnc1O [Compound 121b] | > 128 | 64 (≈ 154 µM) | – | –
17 | Nc1cc(-c2nc(-c3ccc(Oc4ccc(F)cc4)cc3)no2)cnc1O [Compound 121c] | > 128 | 128 (≈ 351 µM) | – | –
18 | Nc1cncc(-c2nc(-c3ccc(Oc4ccc(C(F)(F)F)cc4)cc3)no2)c1 [Compound 122b] | > 128 | > 128 | – | –
19 | Nc1cncc(-c2nc(-c3ccc(Oc4ccc(F)cc4)cc3)no2)c1 [Compound 122c] | > 128 | 128 (≈ 367 µM) | – | –
20 | FC(F)(F)c1ccc(Oc2ccc(-c3noc(-c4n[nH]c5ccccc45)n3)cc2)cc1 [Compound 123b] | > 128 | > 128 | – | –
21 | Fc1ccc(Oc2ccc(-c3noc(-c4n[nH]c5ccccc45)n3)cc2)cc1 [Compound 123c] | > 128 | 16 (≈ 43 µM) | – | –
22 | c1ccc(Oc2ccc(-c3noc(-c4ccc5[nH]ncc5c4)n3)cc2)cc1 [Compound 124a] | > 128 | 64 (≈ 181 µM) | No activity | –
23 | FC(F)(F)c1ccc(Oc2ccc(-c3noc(-c4c[nH]c5ncccc45)n3)cc2)cc1 [Compound 125b] | > 128 | 32 (≈ 75.8 µM) | – | –
24 | Fc1ccc(Oc2ccc(-c3noc(-c4c[nH]c5ncccc45)n3)cc2)cc1 [Compound 125c] | > 128 | 64 (≈ 172 µM) | – | –
25 | Fc1ccc(Oc2ccc(-c3noc(-c4cc[nH]c4)n3)cc2)cc1 [Compound 127c] | > 128 | > 128 | No activity | –
26 | c1ccc(Oc2ccc(-c3noc(C4CCOCC4)n3)cc2)cc1 [Compound 131a] | > 128 | > 128 | – | –

The next lines start with results.

Row | MIC (S. aureus ATCC 29213; [1]) [µg/mL] | MIC (E. faecium NCTC 7171; [2]) [µg/mL] | SMILES | antibacterial activity in words (SAR, ring A derivatives) (S. aureus ATCC 29213) | further results
27 | > 128 | 32 (≈ 70.1 µM) | Oc1cc(-c2nc(-c3ccc(Oc4ccccc4)cc3)no2)ccc1I [Compound 96a] | failed to show significant activity | –
28 | > 128 | > 128 | Oc1ccccc1-c1nc(-c2ccc(Oc3ccccc3)cc2)no1 [Compound 97a] | failed to show significant activity | –
29 | > 128 | > 128 | Nc1ccc(-c2nc(-c3ccc(Oc4ccccc4)cc3)no2)c(O)c1 [Compound 98a] | – | –
30 | > 128 | 128 (≈ 329 µM) | COc1ccc(-c2nc(-c3ccc(Oc4ccccc4)cc3)no2)cc1[N+](=O)[O-] [Compound 99a] | – | –
31 | > 128 | > 128 | COc1ccc(-c2nc(-c3ccc(Oc4ccc(C(F)(F)F)cc4)cc3)no2)cc1[N+](=O)[O-] [Compound 99b] | – | –
32 | > 128 | > 128 | COc1ccc(-c2nc(-c3ccc(Oc4ccc(F)cc4)cc3)no2)cc1[N+](=O)[O-] [Compound 99c] | – | –
33 | > 128 | > 128 | COc1ccc(-c2nc(-c3ccc(Oc4ccccc4)cc3)no2)cc1N [Compound 100a] | – | –
34 | > 128 | > 128 | COc1ccc(-c2nc(-c3ccc(Oc4ccc(C(F)(F)F)cc4)cc3)no2)cc1OC [Compound 101b] | – | –
35 | > 128 | > 128 | COc1ccc(-c2nc(-c3ccc(Oc4ccc(F)cc4)cc3)no2)cc1OC [Compound 101c] | – | –
36 | > 128 | 64 (≈ 172 µM) | FC(F)(F)c1ccc(Oc2ccc(-c3noc(-c4cc[nH]n4)n3)cc2)cc1 [Compound 102b] | – | –
37 | 16 (≈ 42.9 µM) | > 128 | FC(F)(F)c1ccc(Oc2ccc(-c3noc(-c4cnn[nH]4)n3)cc2)cc1 [Compound 117b] | No activity | –
38 | 128 (≈ 381 µM) | 64 (≈ 190 µM) | Nc1c[nH]c(-c2nc(-c3ccc(Oc4ccc(F)cc4)cc3)no2)c1 [Compound 126c] | No activity | –
39 | ≥ 32 | 32 (≈ 103 µM) | NCCCCc1nc(-c2ccc(Oc3ccccc3)cc2)no1 [Compound 137a] | – | –
